According to patent publication US12528767B2, “HDAC6 inhibitors and uses thereof” (Eikonizo Therapeutics, Inc., priority 2019, dated 2026):
Like-named read-outs stand apart in the source and are kept apart here.

Columns and labels:
[1] = biological target: T1, Full length Human HDAC6 (Homo sapiens, UniProt Q9UBN7); settings: for Selectivity (6 v 8) (fold): ratio of HDAC8 IC50/HDAC6 IC50
T1 sequence (Q9UBN7 1-1215): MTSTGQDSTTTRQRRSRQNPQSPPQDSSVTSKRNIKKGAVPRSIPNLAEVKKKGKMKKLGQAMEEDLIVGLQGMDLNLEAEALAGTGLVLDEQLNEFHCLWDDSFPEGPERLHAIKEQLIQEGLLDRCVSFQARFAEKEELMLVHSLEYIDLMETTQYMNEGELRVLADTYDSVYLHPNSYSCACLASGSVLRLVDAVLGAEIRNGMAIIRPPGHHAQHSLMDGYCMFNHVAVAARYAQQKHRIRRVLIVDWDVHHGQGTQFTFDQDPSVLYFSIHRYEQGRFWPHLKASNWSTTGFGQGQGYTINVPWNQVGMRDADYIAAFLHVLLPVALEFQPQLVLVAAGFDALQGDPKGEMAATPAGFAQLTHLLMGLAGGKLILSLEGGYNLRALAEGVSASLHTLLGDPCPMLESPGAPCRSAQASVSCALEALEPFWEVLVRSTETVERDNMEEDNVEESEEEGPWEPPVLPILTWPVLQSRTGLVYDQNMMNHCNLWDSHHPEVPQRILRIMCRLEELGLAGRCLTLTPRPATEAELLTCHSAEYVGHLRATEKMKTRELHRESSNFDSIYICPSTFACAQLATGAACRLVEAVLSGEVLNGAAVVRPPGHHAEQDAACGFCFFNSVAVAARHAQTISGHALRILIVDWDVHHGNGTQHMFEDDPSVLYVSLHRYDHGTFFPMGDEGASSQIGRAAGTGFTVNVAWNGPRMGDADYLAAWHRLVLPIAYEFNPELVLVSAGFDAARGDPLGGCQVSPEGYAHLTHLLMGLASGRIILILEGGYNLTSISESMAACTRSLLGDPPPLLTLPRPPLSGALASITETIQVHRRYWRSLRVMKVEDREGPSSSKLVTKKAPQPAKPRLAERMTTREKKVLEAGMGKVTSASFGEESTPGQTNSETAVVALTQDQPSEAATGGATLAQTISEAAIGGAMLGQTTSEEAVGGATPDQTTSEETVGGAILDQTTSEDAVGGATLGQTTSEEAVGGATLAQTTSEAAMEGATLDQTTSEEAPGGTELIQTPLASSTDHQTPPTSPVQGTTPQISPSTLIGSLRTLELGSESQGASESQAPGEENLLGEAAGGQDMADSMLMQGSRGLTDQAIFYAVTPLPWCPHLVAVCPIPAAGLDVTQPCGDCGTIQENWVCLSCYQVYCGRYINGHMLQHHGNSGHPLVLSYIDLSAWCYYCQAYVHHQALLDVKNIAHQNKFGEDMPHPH

[2] = biological target: T2, Full length Human HDAC8 (Homo sapiens, UniProt Q9BY41)
T2 sequence (Q9BY41 1-377): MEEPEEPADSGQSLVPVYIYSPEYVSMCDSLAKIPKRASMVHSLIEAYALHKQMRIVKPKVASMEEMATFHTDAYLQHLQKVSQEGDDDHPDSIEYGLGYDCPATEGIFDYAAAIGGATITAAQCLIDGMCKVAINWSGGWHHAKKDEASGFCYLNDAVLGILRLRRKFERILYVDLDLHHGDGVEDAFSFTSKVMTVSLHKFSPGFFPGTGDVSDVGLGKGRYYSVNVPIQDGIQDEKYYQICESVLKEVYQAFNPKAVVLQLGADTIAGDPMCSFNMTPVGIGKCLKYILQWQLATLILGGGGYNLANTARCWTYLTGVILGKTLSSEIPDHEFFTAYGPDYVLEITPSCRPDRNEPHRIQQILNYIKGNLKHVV

Selectivity (6 v 8) (fold) ([1]; Table 1, number) | Selectivity (6 v 8) (fold) ([1]; Table 1, range class) | IC50 [2] | IC50 [1] | Compound
– | – | 1000 to 10000 nM | 1 to 100 nM | Cc1cccc(C)c1CN1CCc2cc(C(=O)NO)cc(F)c2C1 [compound 28]
27.9 fold | III (III: >10-100) | 1000 to 10000 nM | 1 to 100 nM | O=C(NO)c1ccc(CN2CC3(CCOC3)C2)c(F)c1 [compound 68]
126.4 fold | IV (IV: >100-1000) | – | – | O=C(NO)c1cc(F)c2c(c1)C[C@@H]1CCC3(CCCCC3)CN1C2 (single isomer, unassigned) [compound 137]
10.3 fold | III (III: >10-100) | 100 to 1000 nM | 1 to 100 nM | O=C(NO)c1cc(F)c2c(c1)CN(Cc1ccccc1)CC2 [compound 114, 2-benzyl-5-fluoro-N-hydroxy-1,2,3,4-tetrahydroisoquinoline-7-carboxamide]
22.3 fold | III (III: >10-100) | 100 to 1000 nM | 1 to 100 nM | O=C(NO)c1ccc(CN2CCCOCC2)c(F)c1 [compound 47]
207.1 fold | IV (IV: >100-1000) | 10000 to 100000 nM | 1 to 100 nM | O=C(NO)c1cc(F)c2c(c1)CCN([C@H]1CCC13CCCCC3)C2 (single isomer, unassigned) [compound 9]
– | – | 1000 to 10000 nM | 1 to 100 nM | O=C(NO)c1cc(F)c2c(c1)CCn1cccc1-2 [compound 147, 10-fluoro-N-hydroxy-5,6-dihydropyrrolo[2,1-a] isoquinoline-8-carboxamide]
– | – | 1000 to 10000 nM | 1 to 100 nM | O=C(NO)c1ccc(CN2CCCC3(C2)C2CC4CC(C2)CC3C4)c(F)c1 (stereo not shown) [compound 77]
69.7 fold | III (III: >10-100) | 1000 to 10000 nM | 1 to 100 nM | O=C(NO)c1ccc2c(c1)CCN(CC13CC4CC(CC(C4)C1)C3)C2 [compound 26]
6.1 fold | II (II: >1-10) | 100 to 1000 nM | 1 to 100 nM | Cc1ccn2c1-c1c(F)cc(C(=O)NO)cc1CC2 [compound 155, 10-fluoro-N-hydroxy-1-methyl-5,6-dihydropyrrolo[2,1-a] isoquinoline-8-carboxamide]
1.8 fold | II (II: >1-10) | – | – | CN1Cc2cc(C(=O)NO)ccc2[C@@H]2CCCN21 (single isomer, unassigned) [compound 160]
– | – | 1000 to 10000 nM | 1 to 100 nM | CN1Cc2cc(C(=O)NO)ccc2CN1Cc1ccccc1 [compound 118, 2-benzyl-N-hydroxy-3-methyl-1,2,3,4-tetrahydrophthalazine-6-carboxamide]
>2.9 fold | V (V: >1000) | – | – | O=C(NO)c1cc(F)c2c(c1)C[C@@H]1COCCN1C2 (single isomer, unassigned) [compound 129]
45 fold | III (III: >10-100) | 10000 to 100000 nM | 100 to 1000 nM | O=C(NO)c1cc(F)c2c(c1)C[C@H]1CCC3(CCCCC3)CN1C2 (single isomer, unassigned) [compound 138]
15.6 fold | III (III: >10-100) | – | – | CC[C@@H]1CCCN1Cc1ccc(C(=O)NO)cc1F (single isomer, unassigned) [compound 48]
262.4 fold | IV (IV: >100-1000) | – | – | CC[C@H](c1ccccc1)N1CCc2cc(C(=O)NO)cc(F)c2C1 (single isomer, unassigned) [compound 30]
>2.8 fold | V (V: >1000) | – | – | O=C(NO)c1cc(F)c2c(c1)C[C@H]1COCCN1C2 (single isomer, unassigned) [compound 130]

The remaining lines, values behind:

Compound | Selectivity (6 v 8) (fold) ([1]; Table 1, number) | Selectivity (6 v 8) (fold) ([1]; Table 1, range class) | IC50 [2] | IC50 [1]
CC[C@@H](c1ccccc1)N1CCc2cc(C(=O)NO)cc(F)c2C1 (single isomer, unassigned) [compound 31] | 468.8 fold | IV (IV: >100-1000) | – | –
O=C(NO)c1ccc2c(c1)CCN1CCC[C@H]21 (single isomer, unassigned) [compound 148] | 1.9 fold | II (II: >1-10) | – | –
O=C(NO)c1cc(F)c(CN2C3CCC2COC3)cc1F [compound 50] | 45.5 fold | III (III: >10-100) | 1000 to 10000 nM | 1 to 100 nM
CN1Cc2cc(C(=O)NO)ccc2[C@H]2CCCN21 (single isomer, unassigned) [compound 161] | 2 fold | II (II: >1-10) | – | –
CN1Cc2cc(C(=O)NO)ccc2-c2cccn21 [compound 162, N-hydroxy-5-methyl-5,6-dihydropyrrolo[2,1-a]phthalazine-8-carboxamide] | 2.8 fold | II (II: >1-10) | 1000 to 10000 nM | 100 to 1000 nM
O=C(NO)c1ccc2c(c1)CN1CCC[C@H]21 (single isomer, unassigned) [compound 164] | 2.3 fold | II (II: >1-10) | – | –
O=C(NO)c1cc(F)c2c(c1)CN(CC13CC4CC(CC(C4)O1)C3)C2 [compound 13] | 168.4 fold | IV (IV: >100-1000) | 10000 to 100000 nM | 100 to 1000 nM
O=C(NO)c1ccc2c(c1)CN1CCCC[C@H]1C2 (single isomer, unassigned) [compound 144] | 26.7 fold | III (III: >10-100) | – | –
CC1(C)C[C@H]2Cc3cc(C(=O)NO)cc(F)c3CN2C1 (single isomer, unassigned) [compound 125] | 82 fold | III (III: >10-100) | 1000 to 10000 nM | 1 to 100 nM
O=C(NO)c1ccc(CN2CC3(CCOCC3)C2)c(F)c1 [compound 71] | 33.4 fold | III (III: >10-100) | 1000 to 10000 nM | 1 to 100 nM
O=C(NO)c1ccc2c(c1)C[C@H]1CCCN1C2 (single isomer, unassigned) [compound 122] | 14.5 fold | III (III: >10-100) | – | –
O=C(NO)c1cc(F)c2c(c1)CCN(CC(F)(F)F)C2 [compound 7] | – | – | 1000 to 10000 nM | 1 to 100 nM
O=C(NO)c1ccc2c(c1)CN1CCCC[C@@H]1C2 (single isomer, unassigned) [compound 143] | 88.8 fold | III (III: >10-100) | – | –
O=C(NO)c1ccc2c(c1)CCN1CCCC[C@H]21 (single isomer, unassigned) [compound 90] | 3.6 fold | II (II: >1-10) | – | –
CC1(C)C[C@@H]2Cc3cc(C(=O)NO)cc(F)c3CN2C1 (single isomer, unassigned) [compound 126] | 37.4 fold | III (III: >10-100) | – | –
O=C(NO)c1ccc2c(c1)CCN1CCCC[C@@H]21 (single isomer, unassigned) [compound 89] | 3.1 fold | II (II: >1-10) | – | –
O=C(NO)c1ccc2c(c1)CCN1CCC[C@@H]21 (single isomer, unassigned) [compound 149] | 6.5 fold | II (II: >1-10) | – | –
CC[C@H]1CCCN1Cc1ccc(C(=O)NO)cc1F (single isomer, unassigned) [compound 49] | 15.4 fold | III (III: >10-100) | – | –
